Assay results from PubChem BioAssay (NCI).
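Test compounds were applied to cells in 96-well plates for 48 hours at 5 doses. Here, GI50 denotes the concentration required for 50% inhibition of growth. The concentration for full growth arrest is given as TGI.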

Experiments:
Assay in all cases: NCI-60 cell line screen, 48 h
A498 renal = tested on: A498 renal
HOP-92 NSCLC = tested on: HOP-92 NSCLC
HT29 colon = tested on: HT29 colon
MOLT-4 leukemia = tested on: MOLT-4 leukemia
NCI-H522 lung = tested on: NCI-H522 lung
NCI/ADR-RES ovarian = tested on: NCI/ADR-RES ovarian
OVCAR-3 ovarian = tested on: OVCAR-3 ovarian
SNB-19 CNS = tested on: SNB-19 CNS
SNB-75 CNS = tested on: SNB-75 CNS
RPMI-8226 leukemia = tested on: RPMI-8226 leukemia

| SMILES | GI50 (A498 renal) [µM] | TGI (A498 renal) [µM] | GI50 (HOP-92 NSCLC) [µM] | TGI (HOP-92 NSCLC) [µM] | GI50 (HT29 colon) [µM] | TGI (HT29 colon) [µM] | GI50 (MOLT-4 leukemia) [µM] | TGI (MOLT-4 leukemia) [µM] | GI50 (NCI-H522 lung) [µM] | TGI (NCI-H522 lung) [µM] | GI50 (NCI/ADR-RES ovarian) [µM] | TGI (NCI/ADR-RES ovarian) [µM] | GI50 (OVCAR-3 ovarian) [µM] | TGI (OVCAR-3 ovarian) [µM] | GI50 (SNB-19 CNS) [µM] | TGI (SNB-19 CNS) [µM] | GI50 (SNB-75 CNS) [µM] | TGI (SNB-75 CNS) [µM] | TGI (RPMI-8226 leukemia) [µM] | GI50 (RPMI-8226 leukemia) [µM] |
| --- | --- | --- | --- | --- | --- | --- | --- | --- | --- | --- | --- | --- | --- | --- | --- | --- | --- | --- | --- | --- |
| Nc1n[nH]c2ccc([C@@H]3Nc4cc5c(cc4[C@H]4C6CCC(C6)[C@@H]34)C(=O)NC5)cc12 (stereo not given in full) | 0.13 | 0.737 | 0.375 | > 100 | 0.393 | > 100 | 0.415 | > 100 | 0.305 | > 100 | 2.69 | > 100 | 0.305 | 1.19 | 0.57 | > 100 | 0.718 | > 100 | – | – |
| CC1=C(CC2C(=O)N(c3ccccc3)S(=O)(=O)NC2C)C(=O)N(c2ccccc2)S(=O)(=O)N1C (stereo not given) | – | – | – | > 100 | – | > 100 | – | > 100 | – | > 100 | – | – | – | > 100 | – | > 100 | – | > 100 | > 100 | – |
| CCCC(S(=O)(=O)c1ccccc1)S(=O)(=O)c1ccccc1 | – | > 100 | – | – | – | > 100 | – | > 100 | – | – | – | – | – | > 100 | – | – | – | > 100 | > 100 | – |
| NC1=NC(=O)C(CC(=O)Nc2ccc(Cl)cc2Cl)S1 (stereo not given) | – | > 100 | – | – | – | > 100 | – | > 100 | – | – | – | – | – | > 100 | – | > 100 | – | > 100 | > 100 | – |
| O=C1C=C(O)C(=Cc2c(O)cc(O)cc2O)C(O)=C1 | – | > 100 | – | > 100 | – | > 100 | – | > 100 | – | > 100 | – | – | – | > 100 | – | > 100 | – | > 100 | > 100 | – |
| Cc1ccc(C2C3Cc4ccccc4C3=NN2c2ccc(S(=O)(=O)/N=c3\scc(-c4ccccc4)n3-c3ccccc3)cc2)cc1 (stereo not given) | 14.9 | 36.1 | 18.8 | 41.7 | – | – | 12.8 | 31.1 | 22 | 66.8 | – | – | 16.6 | 43.7 | 64.8 | > 100 | – | – | 35.6 | 13.4 |
| O=C1c2ccccc2N2OC3(N4CCCC4)CCCCC3C12c1ccccc1 (stereo not given) | – | > 100 | – | 29.7 | – | 52.6 | – | > 100 | – | 29.1 | – | – | – | – | – | > 100 | – | > 100 | > 100 | – |
| CC1=C(C(=O)Nc2ccc(Cl)c(Cl)c2)C(c2ccc([N+](=O)[O-])cc2)C(C(=O)Nc2ccc(Cl)c(Cl)c2)=C(C)N1 | – | 14.8 | – | 6.06 | – | 7.55 | – | > 100 | – | 8.85 | – | – | – | 4.56 | – | > 71.3 | – | 20.5 | 8.63 | – |
| c1ccc2c(c1)CCc1c-2n[nH]c1-c1[nH]nc2c1CCc1ccccc1-2 | – | > 100 | – | > 100 | – | > 100 | – | > 100 | – | – | – | – | – | > 100 | – | > 100 | – | > 100 | – | – |
| COc1cc(C2(C)SCCCS2)cc(OC)c1OC | – | > 100 | – | > 100 | – | > 100 | – | > 100 | – | > 100 | – | – | – | > 100 | – | > 100 | – | > 100 | > 100 | – |
| COc1cc2cc(Oc3ccc(NC(=O)c4ccc(Cl)c(Cl)c4)cc3)c(C)nc2cc1OC | 20.6 | > 100 | 16.1 | > 100 | 7.89 | > 100 | 6.12 | > 100 | 6.27 | > 100 | – | – | 9.34 | > 100 | > 100 | > 100 | > 100 | > 100 | > 100 | 3.7 |
| COc1ccc(OC(=O)CC2Cc3cc(OC)c(OC)c(OC)c3-c3ccc(SC)c(=O)cc32)cc1 (stereo not given) | – | 2.57 | – | 9.05 | – | > 100 | – | > 100 | – | 0.527 | – | – | – | – | – | > 100 | – | > 100 | 14.4 | – |
| CCOc1ccc(NC(=O)CCc2nnc(SC)o2)cc1 | – | > 100 | – | > 100 | – | > 100 | – | > 100 | – | > 100 | – | – | – | > 100 | – | > 100 | – | > 100 | – | – |
| O=C(NNS(=O)(=O)c1ccc(Cl)cc1Cl)c1cccnc1Nc1ccc(Cl)cc1 | 25 | 47.9 | 14.6 | 40.7 | 22.8 | 54.2 | 19.6 | 58.2 | – | – | 23.4 | 76.5 | 20.6 | > 100 | 27 | > 100 | 22.4 | 84.4 | 53.2 | 17.7 |
| CC(=O)/C(=C\c1ccccc1O)C(=O)Nc1ccccc1C | – | – | – | 44.9 | – | 37.2 | – | 70.1 | – | – | – | – | – | 72 | – | 54.3 | – | – | 71.4 | – |
| Cc1ccccc1-n1c(N)c(-c2nc3ccccc3[nH]2)sc1=S | – | > 100 | – | – | – | 36.9 | – | 70.6 | – | 50.3 | – | – | – | 41.1 | – | 66.4 | – | 56.6 | 62.2 | – |
| COc1ccc(-c2cc(=O)c3c(O)cccc3o2)c(OC)c1OC | – | 82.9 | – | > 100 | – | > 100 | – | > 100 | – | > 100 | – | – | – | > 100 | – | – | – | 75.5 | > 100 | – |
| COc1ccc(-c2[nH]c3ccccc3c2CCNS(=O)(=O)c2ccc(C)cc2)cc1 | – | > 10 | – | > 10 | – | > 10 | – | > 10 | – | > 10 | – | – | – | > 10 | – | > 10 | – | > 10 | > 10 | – |
| C[CH2][Hg][S]c1ccccc1C(=O)O | 1.64 | 4.04 | – | – | – | – | 2.43 | 6.7 | – | – | 1.94 | 4.79 | 0.871 | 2.09 | 2.98 | 12.3 | 2.98 | 10.8 | 4.24 | 1.28 |
| Cc1cccc(NC(=O)/C(=N\N)C(c2cnc3ccc([N+](=O)[O-])cc3n2)[N+](=O)[O-])c1C (stereo not given) | – | – | – | > 100 | – | > 100 | – | > 100 | – | > 100 | – | – | – | > 100 | – | > 100 | – | > 100 | – | – |
| O=C(NCCNCCO)c1cccc2ccc(-c3ccccc3)nc12 | – | 8.41 | – | 11.7 | – | 14.6 | – | – | – | – | – | – | – | 25.1 | – | 28.7 | – | 22.3 | – | – |
